Assay results as given in US10934309B2, “Tricyclic quinone derivative” (Boston Biomedical, Inc., priority 2014, dated 2021).

Tests used:
Format in all cases: cell-based, human
HCT-116 cells [1] = assay: Proliferation inhibition assay of cancer cells (Test Example 1), HCT-116; details: Homo sapiens, HCT-116, 96 h, HCT-116 cells, cultured for 4 days, Cell Titer-Glo; read-out: IC50 (μM) HCT; concentration for 50% inhibition of cell proliferation (Bulk IC50 value)
Method: (§1) HCT-116 cells (derived from human colon adenocarcinoma), HT-29 cells (derived from human colon cancer), and FaDu cells (derived from human hypopharynx cancer) were obtained from American Type Culture Collection (ATCC). […] After cells were seeded at 300-600 cells/well onto black μClear-plate 384 well (Greiner bio-one Cat. No. 781091), a test substance was added such that the final concentration of DMSO is 0.1%, and cultured for 4 days. […] A test shown in Test example 1 was carried out for compounds obtained in the Examples.

FaDu cells [2] = assay: Proliferation inhibition assay of cancer cells (Test Example 1), FaDu; details: Homo sapiens, FaDu, 96 h, FaDu cells, cultured for 4 days, Cell Titer-Glo; read-out: IC50 (μM) FaDu; concentration for 50% inhibition of cell proliferation (Bulk IC50 value)
Method: as §1

HT-29 cells [3] = assay: Proliferation inhibition assay of cancer cells (Test Example 1), HT-29; details: Homo sapiens, HT-29, 96 h, HT-29 cells, cultured for 4 days, Cell Titer-Glo; read-out: IC50 (μM) HT; concentration for 50% inhibition of cell proliferation (Bulk IC50 value)
Method: as §1

HCT-116 cells [4] = assay: Inhibition assay of cancer cell sphere-forming ability (Test Example 2), HCT-116; details: Homo sapiens, HCT-116, 96 h, HCT-116 cells, Ultra-Low Attachment plate, serum-free DMEM/F12 with B27, EGF, bFGF, insulin, 4 days, Cell Titer-Glo; read-out: IC50 (μM) HCT; concentration for 50% inhibition of cell proliferation (Sphere IC50 value)
Method: (§2) HCT-116 cells (derived from human colon adenocarcinoma), HT-29 cells (derived from human colon cancer), FaDu cells (derived from human hypopharynx cancer) were obtained from American Type Culture Collection (ATCC). […] HCT-116 cells, HT-29 cells, and FaDu cells were seeded onto 384 Well Black Clear Bottom Ultra-Low Attachment Microplate (Corning Cat. […] A test substance was added so that the final concentration of DMSO is 0.1%, and then cultured for 4 days. […] A test shown in Test example 2 was carried out for compounds obtained in the Examples.

FaDu cells [5] = assay: Inhibition assay of cancer cell sphere-forming ability (Test Example 2), FaDu; details: Homo sapiens, FaDu, 96 h, FaDu cells, Ultra-Low Attachment plate, serum-free DMEM/F12 with B27, EGF, bFGF, insulin, 4 days, Cell Titer-Glo; read-out: IC50 (μM) FaDu; concentration for 50% inhibition of cell proliferation (Sphere IC50 value)
Method: as §2

HT-29 cells [6] = assay: Inhibition assay of cancer cell sphere-forming ability (Test Example 2), HT-29; details: Homo sapiens, HT-29, 96 h, HT-29 cells, Ultra-Low Attachment plate, serum-free DMEM/F12 with B27, EGF, bFGF, insulin, 4 days, Cell Titer-Glo; read-out: IC50 (μM) HT; concentration for 50% inhibition of cell proliferation (Sphere IC50 value)
Method: as §2

cancer cells [7] = assay: Proliferation inhibition test of cancer cells, overall statement on Table 1; details: summary of Table 1
Method: HCT-116 cells (derived from human colon adenocarcinoma), HT-29 cells (derived from human colon cancer), and FaDu cells (derived from human hypopharynx cancer) were obtained from American Type Culture Collection (ATCC). HCT-116 cells and HT-29 cells were cultured using McCoy's 5a medium containing 10% fetal bovine serum (FBS) and 1% penicillin/streptomycin, and FaDu cells were cultured using MEM medium containing 10% FBS, 1% non-essential amino acid, 1% sodium pyruvate, and 1% penicillin/streptomycin, respectively, at 37° C. in the presence of 5% CO2. After cells were seeded at 300-600 cells/well onto black μClear-plate 384 well (Greiner bio-one Cat. No. 781091), a test substance was added such that the final concentration of DMSO is 0.1%, and cultured for 4 days. The number of living cells was then counted using Cell Titer-Glo (Registered trademark) Luminescent Cell Viability Assay (Promega) to calculate a concentration for 50% inhibition of cell proliferation of respective test substances (Bulk IC50 value; μM).

cancer cells [8] = assay: Inhibition test of cancer cell sphere-forming ability, overall statement on Table 2; details: summary of Table 2
Method: HCT-116 cells (derived from human colon adenocarcinoma), HT-29 cells (derived from human colon cancer), FaDu cells (derived from human hypopharynx cancer) were obtained from American Type Culture Collection (ATCC). HCT-116 cells and HT-29 cells were cultured using McCoy's 5a medium containing 10% fetal bovine serum (FBS) and 1% penicillin/streptomycin, and FaDu cells were cultured using MEM medium containing 10% FBS, 1% non-essential amino acid, 1% sodium pyruvate, and 1% penicillin/streptomycin, respectively, at 37° C. in the presence of 5% CO2. HCT-116 cells, HT-29 cells, and FaDu cells were seeded onto 384 Well Black Clear Bottom Ultra-Low Attachment Microplate (Corning Cat. No. 3827) using DMEM/F12 medium containing 2% B27 supplement (GIBCO), 20 ng/mL epidermal growth factor (EGF) (peprotech), 10 ng/mL basic fibroblast growth factor (bFGF) (peprotech), 5 μg/mL insulin (Sigma), and 1% penicillin/streptomycin to be 350-800 cells/well. A test substance was added so that the final concentration of DMSO is 0.1%, and then cultured for 4 days. The number of living cells was then counted using Cell Titer-Glo (registered trademark) Luminescent Cell Viability Assay (Promega) to calculate the concentration for 50% inhibition of cell proliferation of respective test substances (Sphere IC50 value; μM).

| SMILES | IC50 (HCT-116 cells [1]) | IC50 (FaDu cells [2]) | IC50 (HT-29 cells [3]) | IC50 (HCT-116 cells [4]) | IC50 (FaDu cells [5]) | IC50 (HT-29 cells [6]) | effect on the inhibition of the proliferation of cancer cells (in words) (cancer cells [7]) | effect to inhibit cancer cell sphere-forming ability (in words) (cancer cells [8]) |
| --- | --- | --- | --- | --- | --- | --- | --- | --- |
| CC(=O)c1cc2c(s1)C(=O)c1cccnc1C2=O [Example 1, 2-acetylthieno[2,3-g]quinoline-4,9-dione] | 0.01 µM | 0.01 µM | 0.57 µM | 0.02 µM | 0.02 µM | 0.07 µM | particularly strong effect |  |
| O=C1c2cnccc2C(=O)c2sc(C(=O)N3CCOCC3)cc21 [Example 20, 2-(morpholin-4-ylcarbonyl)thieno[2,3-g]isoquinoline-4,9-dione] | 0.05 µM | < 0.01 µM | 0.09 µM | 0.06 µM | < 0.01 µM | 0.06 µM | particularly strong effect | particularly strong effect |
| CCN(CCOC)Cc1cc2c(s1)C(=O)c1ccncc1C2=O [Example 24, 2-{[ethyl(2-methoxyethyl)amino]methyl}thieno[2,3-g]isoquinoline-4,9-dione] | 0.34 µM | 0.03 µM | 0.65 µM | 0.43 µM | < 0.01 µM | 0.18 µM |  | particularly strong effect |
| O=C1c2ccncc2C(=O)c2c1oc(C(F)F)c2C(=O)N1CCOCC1 [Example 62, 2-(difluoromethyl)-3-(morpholine-4-carbonyl)furo[2,3-g]isoquinoline-4,9-dione] | 0.06 µM | 0.04 µM | 0.57 µM | 0.05 µM | < 0.01 µM | 0.04 µM | particularly strong effect | particularly strong effect |
| CC(=O)c1cc2c(s1)C(=O)c1ccncc1C2=O [Example 12, 2-acetylthieno[2,3-g]isoquinoline-4,9-dione] | 0.05 µM | < 0.01 µM | 0.18 µM | 0.04 µM | < 0.01 µM | 0.03 µM | particularly strong effect | particularly strong effect |
| O=C1c2cnccc2C(=O)c2oc(C(F)F)cc21 [Example 63, 2-(difluoromethyl)furo[2,3-g]isoquinoline-4,9-dione] | 0.05 µM | 0.05 µM | 0.54 µM | 0.06 µM | 0.04 µM | 0.24 µM | particularly strong effect | particularly strong effect |
| CC(C)(O)c1cc2c(s1)C(=O)c1ccncc1C2=O [Example 15, 2-(2-hydroxypropan-2-yl)thieno[2,3-g]isoquinoline-4,9-dione] | 0.34 µM | 0.04 µM | 0.61 µM | 0.4 µM | < 0.01 µM | 0.46 µM |  | particularly strong effect |
| O=C1c2cnccc2C(=O)c2sc(C(O)C3CC3)cc21 (centres unmarked) [Example 16, 2-[cyclopropyl(hydroxy)methyl]thieno[2,3-g]isoquinoline-4,9-dione] | 0.06 µM | < 0.01 µM | 0.58 µM | 0.22 µM | < 0.01 µM | 0.15 µM | particularly strong effect | particularly strong effect |
| O=C1c2cnccc2C(=O)c2sc(CNCC(F)F)cc21 [Example 26, 2-{[(2,2-difluoroethyl)amino]methyl}thieno[2,3-g]isoquinoline-4,9-dione] | 0.09 µM | 0.02 µM | 0.45 µM | 0.17 µM | < 0.01 µM | 0.07 µM |  | particularly strong effect |
| CC(O)c1cc2c(s1)C(=O)c1ccncc1C2=O (centres unmarked) [Example 13, 2-(1-hydroxyethyl)thieno[2,3-g]isoquinoline-4,9-dione] | 0.06 µM | 0.02 µM | 0.37 µM | 0.05 µM | < 0.01 µM | 0.06 µM |  | particularly strong effect |
| O=C(NCC(F)F)c1cc2c(o1)C(=O)c1ccncc1C2=O [Example 46, N-(2,2-difluoroethyl)-4,9-dioxo-4,9-dihydrofuro[2,3-g]isoquinoline-2-carboxamide] | < 0.01 µM | < 0.01 µM | 0.05 µM | 0.04 µM | < 0.01 µM | 0.05 µM | particularly strong effect | particularly strong effect |
| CC(O)c1cc2c(o1)C(=O)c1cnccc1C2=O (centres unmarked) [Example 49, 2-(1-hydroxyethyl)furo[3,2-g]isoquinoline-4,9-dione] | 0.04 µM | < 0.01 µM | 0.08 µM | 0.04 µM | < 0.01 µM | 0.06 µM | particularly strong effect | particularly strong effect |
| CC(=O)c1cc2c(s1)C(=O)c1cnccc1C2=O [Example 33, 2-acetylthieno[3,2-g]isoquinoline-4,9-dione] | < 0.01 µM | < 0.01 µM | 0.09 µM | 0.02 µM | < 0.01 µM | 0.07 µM | particularly strong effect | particularly strong effect |
| O=C1c2cc(C(=O)N3CCOCC3)oc2C(=O)c2sccc21 [Example 55, 2-(morpholin-4-ylcarbonyl)thieno[3,2-f][1]benzofuran-4,8-dione] | 0.05 µM | 0.06 µM | 0.58 µM | 0.04 µM | 0.01 µM | 0.04 µM |  | particularly strong effect |
| CC(=O)N1CCN(Cc2cc3c(s2)C(=O)c2ccncc2C3=O)CC1 [Example 27, 2-[(4-acetylpiperazin-1-yl)methyl]thieno[2,3-g]isoquinoline-4,9-dione] | 0.5 µM | 0.03 µM | 0.4 µM | 0.47 µM | < 0.01 µM | 0.06 µM |  | particularly strong effect |
